Reference: US4927832A, “Novel tetrahydropyridines having analgesic activity” (Roussel Uclaf, priority 1987, dated 1990)
Counter-ions that a name gives are not always drawn.

Legend:
[1] = test system: Male rats of Sprague Dawley strain; test: Measurement of diuretic activity; format: in vivo; details: 5 mg/kg orally, urinary volume over period t0h-t5h
Procedure: (3) Measurement of diuretic activity Male rats of Sprague Dawley strain weighing 180-200 g were deprived of food for 17 hours before the test, while receiving water ad libitum. Groups of 8 animals were set up for each dose tested and the rats received the product under test or its vehicle orally. The urine volume was measured every hour for the 5 hours following the administration of the product. After this period, the urines were collected and the activity of the product was expressed as a percentage of variation calculated on the urinary volume corresponding to the period tOH --[…].

[2] = target: T1, K opiated receptor (Cavia porcellus, UniProt P41144); test: Liaison to the K opiated receptor in vitro (displacement of 3H ethylketocyclazocine); format: binding, guinea pigs; details: 50% inhibiting concentration (IC50), membranes from guinea pig brains, 3H ethylketocyclazocine 1 nM, 25° C. for 40 minutes
T1 construct: prepared from the brains of guinea pigs were used; from tissue; host or cells: guinea pig brain membranes
Procedure: (1) Liaison to the K opiated receptor in vitro:
Membrane residues preserved at -30° C. (possibly up to about 30 days) and prepared from the brains of guinea pigs were used.' The residues were suspended in Tris pH 7.7 buffer and fractions of 2 ml were distributed in hemolysis tubes, 9^3 H ethylketocyclazocine 1 nM and the product under study were added. The product was first tested at 5×10^-6 M (in triplicate). When the product tested displaced the radioactivity bound specifically to the receptor by more than 50%, it was again tested according to a range of 7 doses to determine the dose which inhibits the radioactivity bound specifically to the receptor by 50%. In this way, the 50% inhibiting concentration was determined.
The non-specific liaison was determined by adding the product known as U-50488 H (Lahti et al. 1982, Life Sci. 31, 2257) at 10^-5 M in triplicate. After incubating at 25° C. for 40 minutes, returning to the water-bath at 0° C. for 5 minutes, filtering under vacuum, and rinsing with Tris pH 7.7 buffer, the radioactivity was counted in the presence of scintillating Trition. […]

[3] = test system: male mice; test: Analgesic activity (acetic acid stretching and twisting test); format: in vivo; details: administered orally 30 minutes before intraperitoneal acetic acid
Procedure: This test was based on the observation of Koster et al (Fed. Proc. 1959, 1B, 412) that the intraperitioneal injection of acetic acid causes repeated movements of stretching and twisting in rodents which can be considered as manifestations of a diffuse abdominal pain because they ae attenuated by analgesics. The acetic acid was injected at a […] male mice of average weight of […]. The product under study was administered orally 30 minutes before the injection of the acetic acid to groups of 10 animals, each trial including a control group which receives the vehicle. Five minutes after the injection of the irritant, the stretchings and twistings were counted for each animal for a period of 15 minutes. The analgesic effect of each dose of product studied was expressed as a percentage of protection in relation to the average number of movements observed in the controls receiving acetic acid alone. The DA50 or dose necessary to reduce the number of stretchings by 50% was calculated according to the method of least squares. The DA50 values obtained with the products of Example 1 and 3 were respectively 2.5 and 5 mg/kg.

[4] = test system: rat; test: Anti-arrhythmic activity in the rat (aconitine perfusion); format: in vivo; details: 5 minutes before aconitine perfusion, compared with controls
Procedure: (2) Anti-arrhythmic activity in the rat
Male rats weighing 300-350 g, anesthesized intra-peritoneally with 1.20 g/kg of urethane, were tracheotomised and submitted to artifical respiration (40-50 insufflations of 3 ml/minute). Needles were implanted sub-cutaneously to record the electrocardiogram of the rats on the DII derivation signal and the products under test were administered intravenously. Five minutes after administering the product, the jugular vein of the rats was perfused with 10 μg/mn from 0.2 ml of an aconitine solution and the time of appearance of disturbances of the cardiac rhythm was noted. The results were expressed as percentage of extension of the time of appearance of the cardiac rhythm disturbances as compared with controls and as a function of the dose of the product tested.

T1 sequence (P41144 whole entry): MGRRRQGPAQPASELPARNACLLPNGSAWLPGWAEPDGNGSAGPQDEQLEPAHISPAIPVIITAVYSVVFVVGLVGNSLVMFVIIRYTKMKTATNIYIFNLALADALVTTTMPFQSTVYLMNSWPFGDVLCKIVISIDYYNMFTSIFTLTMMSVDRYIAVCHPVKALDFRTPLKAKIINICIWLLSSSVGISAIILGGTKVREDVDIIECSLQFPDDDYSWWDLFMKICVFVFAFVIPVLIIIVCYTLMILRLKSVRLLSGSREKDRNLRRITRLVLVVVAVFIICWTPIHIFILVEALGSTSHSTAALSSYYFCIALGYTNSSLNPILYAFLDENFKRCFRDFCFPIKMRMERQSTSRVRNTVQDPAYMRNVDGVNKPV

SMILES	Percentage of variation of the urine volume [1]	IC50 [2]	DA50 or dose necessary to reduce the number of stretchings by 50% ([3]; 30 min)	Percentage of extension of the time of appearance of the cardiac rhythm disturbances ([4]; dose 1 mg/kg intravenously)	Percentage of extension of the time of appearance of the cardiac rhythm disturbances ([4]; dose 2.5 mg/kg intravenously)	ED50 ([3]; Mus musculus, po, 0.5 h, read-out: DA50 or dose necessary to reduce the number of stretchings by 50%)
O=C(Cc1ccc(Cl)c(Cl)c1)N1CCCC2CCC(N3CCCC3)C21 (stereo not drawn) [Example 3, [4aRS (4aα, 7aβ)] (35) 1-[(3.4-dichlorophenyl)acetyl]octahydro-7-(1-pyrrolidinyl)-1H-1-pyrindine hydrochloride (isomer trans I).]	+57%	9 nM	5 mg/kg	–	–	–
O=C(Cc1ccc(Cl)c(Cl)c1)N1CCCC2CCC(N3CCCC3)C21 (mixture of isomers) [Example 1, [4aRS (4a-α, 7a-α)](±)1-[(3,4-dichlorophenyl)-acetyl]-octahydro-7-(1-pyrrolidinyl)-1H-1-pyrindine hydrochloride (isomer cis I)]	+85%	4 nM	–	+26%	+35%	2.5 mg/kg
O=C(Cc1ccc(Cl)c(Cl)c1)N1CCC[C@@H]2CCCC[C@H](N3CCCC3)[C@@H]21 (relative stereo) [Example 4, [4a-α, 9-β, 9a-α] (±) decahydro-1-([3,4-dichlorophenyl)-acetyl]-9-(1-pyrrolidinyl)-1H-cyclohepta[b]pyridine hydrochloride]	–	–	–	+37%	+65%	–
